The series relates to rat chronic carcinogenicity bioassay, TD50. The series is described as follows: DSSTox (CPDBAS) Carcinogenic Potency Database Summary Rat Bioassay Results. The note with it: for Potency: stronger effect = lower value; for outcome: TD50_Rat_Note: no positive results. The method, boiled down: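 Chronic long-term rat cancer bioassays from literature and NCI/NTP, taking the most positive result per sex. TD50 in mmol converted to a 1–100 Activity Score from log10(1/TD50). Mixtures lacking TD50 scored 50.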

Where [1] appears, read: TargetSites_Rat_Female: no positive results.
Where [2] appears, read: TargetSites_Rat_Female: mammary gland.
Where [3] appears, read: TD50_Rat_Note: TD50 is harmonic mean of more than one positive test, TargetSites_Rat_Female: hematopoietic system.
The mark [4] stands for this setting: TargetSites_Rat_BothSexes: no positive results.

Activity calls are given as the source filed them.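 The calls were made as follows: active = at least one rat sex group has a carcinogenic potency value and tumor site recorded; inconclusive = only rat studies were judged inadequate by the national testing program; inactive = no potency or tumor site, with negative rat experiments.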

Consider `CC/C=C(/CC)[N+](=O)[O-]`, for which, where the note is “TargetSites_Rat_BothSexes: lung”, the Potency was 8.66 mg/kg/day. For the compound `O=C1C2CC=CCC2C(=O)N1SC(Cl)(Cl)Cl` (centres undefined), the Potency (TD50_Rat_Note: TD50 is harmonic mean of more than one positive test, TargetSites_Rat_Female: uterus) was 2080 mg/kg/day. For the compound `CNNCc1ccc(C(=O)NC(C)C)cc1`, the Potency is 0.351 mg/kg/day (TD50_Rat_Note: positive test results only by intraperitoneal or intravenous injection, TD50 is harmonic mean of more than one positive, TargetSites_Rat_Female: hematopoietic system, mammary gland, nervous system) and 4.01 mg/kg/day (TD50_Rat_Note: positive test results only by intraperitoneal or intravenous injection). For `CC(=O)OC/C=C(C)/C=C/C=C(C)/C=C/C1=C(C)CCCC1(C)C`, the Potency (TD50_Rat_Note: TD50 is harmonic mean of more than one positive test, TargetSites_Rat_Female: adrenal gland) was 125 mg/kg/day.

For `O=c1[nH]c(=O)n(C2CCCO2)cc1F` (centres undefined), under setting [1], the outcome was “inactive; no positive results”. Take `CC(=O)Nc1ccc(S(=O)(=O)O)c2cc(S(=O)(=O)O)c(N=Nc3ccc(N=Nc4ccc(S(=O)(=O)O)cc4)c4ccc(S(=O)(=O)O)cc34)c(O)c12`: the outcome under setting [1] is “inactive; no positive results”. The same measure, in the same setting: to `C1N2CN3CN1CN(C2)C3` belongs “inactive; no positive results”. Turning to `O=C(Nc1nc(-c2ccc([N+](=O)[O-])o2)cs1)C(F)(F)F`, the Potency under setting [2] is 6.79 mg/kg/day. Turning to `COC(C)(C)C`, under setting [3], the Potency was 702 mg/kg/day. Turning to `CC(O)CN(CC(O)CO)N=O` (centres undefined), the Potency (TargetSites_Rat_Female: esophagus, oral cavity, stomach) was 0.0535 mg/kg/day.

As to `Cc1cc(Cc2cc(C)cc(C(C)(C)C)c2O)c(O)c(C(C)(C)C)c1`, the outcome under setting [1] was “inactive; no positive results”.

With `[O-][Br+2]([O-])O`, the Potency (TD50_Rat_Note: TD50 is harmonic mean of more than one positive test, TargetSites_Rat_Female: kidney) is 9.82 mg/kg/day. Turning to `CC(C)n1c(/C=C/[C@@H](O)C[C@@H](O)CC(=O)O)c(-c2ccc(F)cc2)c2ccccc21`, under setting [1], the Potency is 125 mg/kg/day.

`Cc1ccc(N=Nc2c(O)ccc3ccccc23)c([N+](=O)[O-])c1`: the Potency (TD50_Rat_Note: TD50 is harmonic mean of more than one positive test, TargetSites_Rat_Female: liver) was 1170 mg/kg/day.

With `CN[C@@H](C)[C@H](O)c1ccccc1`, the outcome under setting [1] was “inactive; no positive results”.

Regarding `CC(Oc1c(Cl)cccc1Cl)C1=NCCN1` (centres undefined), the outcome under setting [1] is “inactive; no positive results”.

In the case of `O=[As]O`, the outcome under setting [4] was inactive. For the compound `Cc1cc(Cl)ccc1N`, the outcome under setting [1] was “inactive; no positive results”. As to `Nc1ccc(Sc2ccc(N)cc2)cc1`, for the setting “TD50_Rat_Note: TD50 is harmonic mean of more than one positive test, TargetSites_Rat_Female: ear Zymbals gland, thyroid gland, uterus”, the Potency was 3.71 mg/kg/day. As for `Nc1nc(N)nc(N)n1`, under setting [1], the Potency is 735 mg/kg/day. Consider `N[C@@H](CCC(=O)O)C(=O)O`, for which the outcome under setting [1] was “inactive; no positive results”. For `COC(N)=O`, the Potency (TD50_Rat_Note: TD50 is harmonic mean of more than one positive test, greater than ten-fold variation among TD50 values for positive res, TargetSites_Rat_Female: liver) is 56.6 mg/kg/day.

Take `CC(=O)CN(CCO)N=O`: the Potency (TargetSites_Rat_Female: liver) was 1.8 mg/kg/day. With `CCOC(=O)N(CC)N=O`, the Potency (TD50_Rat_Note: TD50 is harmonic mean of more than one positive test, TargetSites_Rat_Female: esophagus, oral cavity, small intestine, stomach) is 0.0904 mg/kg/day.

As to `COc1ccc2c3c1O[C@H]1[C@@H](O)C=C[C@H]4[C@@H](C2)N(C)CC[C@@]341`, under setting [1], the outcome was “inactive; no positive results”. On the same count and under the same terms, the value for `C[C@](N)(Cc1ccc(O)c(O)c1)C(=O)O` was “inactive; no positive results”; that for `CCCCCCc1ccc(O)cc1O` was “inactive; no positive results”. In the case of `O=S(=O)(O)CCS`, the outcome was “inactive; no positive results”. Consider `Clc1cc2c(c(Cl)c1Cl)Oc1c(cc(Cl)c(Cl)c1Cl)O2`, for which, where the note is “TargetSites_Rat_Female: liver”, the Potency was 0.000596 mg/kg/day. With `CCCN(N=O)C(=N)N[N+](=O)[O-]`, for the setting “TD50_Rat_Note: TD50 is harmonic mean of more than one positive test”, the Potency was 1.31 mg/kg/day. Take `CC(=O)Nc1nc(-c2ccc([N+](=O)[O-])o2)cs1`: under “TD50_Rat_Note: TD50 is harmonic mean of more than one positive test, TargetSites_Rat_Female: mammary gland”, the Potency was 17.8 mg/kg/day. As to `CCc1ccc(C(c2ccc(CC)cc2)C(Cl)Cl)cc1`, the outcome under setting [1] is “inactive; no positive results”. Same read-out and setting: the value for `O=C(O)CNCC(=O)O` was “inactive; no positive results”. `CCOc1ccc(NC(C)=O)cc1`: the Potency (TD50_Rat_Note: TD50 is harmonic mean of more than one positive test, TargetSites_Rat_Female: ear Zymbals gland, mammary gland, nasal cavity, urinary bladder) is 1250 mg/kg/day. For the compound `CCCCCCCCCCCN(C)N=O`, the Potency is 2.37 mg/kg/day. As to `CO[C@@]12[C@H](COC(N)=O)C3=C(C(=O)C(C)=C(N)C3=O)N1C[C@@H]1N[C@@H]12`, the Potency (TD50_Rat_Note: positive test results only by intraperitoneal or intravenous injection, TD50 is harmonic mean of more than one positive, TargetSites_Rat_Female: peritoneal cavity) was 0.00102 mg/kg/day.

With `CC(=O)OCc1ccccc1`, the outcome under setting [1] is “inactive; no positive results”. As to `CC(=O)Nc1ccc(CC(=O)O)cc1`, the outcome under setting [1] is “inactive; no positive results”. For the compound `CNC(=O)c1c(N(C)N=O)ncn1C`, the Potency (TargetSites_Rat_BothSexes: nasal cavity) is 1 mg/kg/day. As to `Cc1cc(Cl)ccc1OCC(=O)O`, the outcome under setting [1] was “inactive; no positive results”. In the case of `COc1ccc([N+](=O)[O-])cc1N`, the Potency (TD50_Rat_Note: TD50 is harmonic mean of more than one positive test, TargetSites_Rat_Female: clitoral gland, skin) is 53.9 mg/kg/day. For the compound `N[C@@H](Cc1cnc[nH]1)C(=O)O`, under setting [1], the outcome was “inactive; no positive results”.

Consider `CC(C)(C)c1cc([N+](=O)[O-])cc([N+](=O)[O-])c1OS(C)(=O)=O`, for which, under setting [1], the outcome is “inactive; no positive results”. With `C/C=N/O`, the outcome is “inactive; no positive results”. Turning to `C=CCN(CC(C)=O)N=O`, the Potency (TargetSites_Rat_Female: esophagus, liver) was 0.335 mg/kg/day. `O=[N+]([O-])c1ccc(-c2nc(N3CCOCC3)c3ccccc3n2)s1`: the Potency (TargetSites_Rat_Female: all tumor bearing animals) is 5.03 mg/kg/day. As to `COc1ccc(N)cc1N`, the Potency (TD50_Rat_Note: TD50 is harmonic mean of more than one positive test, TargetSites_Rat_Female: clitoral gland, ear Zymbals gland, mammary gland, thyroid gland) was 183 mg/kg/day. In the case of `CCCN(CCC)S(=O)(=O)c1ccc(C(=O)O)cc1`, under setting [1], the outcome is “inactive; no positive results”. Consider `O=C1CCc2ccccc2O1`, for which, under setting [1], the Potency is 2970 mg/kg/day. The same measure, in the same setting: to `CCC1CO1` (centres undefined) belongs 220 mg/kg/day. On to `NNc1nc(-c2ccc([N+](=O)[O-])o2)cs1`, for which, for the setting “TD50_Rat_Note: TD50 is harmonic mean of more than one positive test, TargetSites_Rat_Female: kidney, mammary gland”, the Potency was 3.19 mg/kg/day. Regarding `CC(Cl)(Cl)Cl`, under setting [1], the outcome was “inactive; no positive results”. On the same count and under the same terms, to `CN(C)CCC(c1ccc(Cl)cc1)c1ccccn1` (centres undefined) belongs “inactive; no positive results”. Take `C=C(C)C`: the Potency under setting [1] was 3550 mg/kg/day.

Regarding `O=S(=O)(O)c1ccc(N=Nc2c(O)ccc3cc(S(=O)(=O)O)ccc23)cc1`, the outcome under setting [1] is “inactive; no positive results”.

For `Cc1cc(=O)n(-c2ccccc2)n1C`, the Potency was 1230 mg/kg/day. As to `[K+]`, under “TD50_Rat_Note: TD50 is harmonic mean of more than one positive test, TargetSites_Rat_Female: oral cavity”, the Potency is 440 mg/kg/day.

`CC(=O)Nc1nc(NC(C)=O)nc(-c2ccc([N+](=O)[O-])o2)n1`: the Potency under setting [2] is 14.1 mg/kg/day. `C[N+](C)(C)CCO`: the outcome was “inactive; no positive results”. With `C=CCO`, the outcome under setting [1] was “inactive; no positive results”. The same measure, in the same setting: to `COC(=O)NN` belongs “inactive; no positive results”; to `Nc1ccc(O)c(N)c1`, “inactive; no positive results”. Same read-out and setting: the value for `NCCNc1cccc2ccccc12` was “inactive; no positive results”. Regarding `ClCCCl`, the Potency (TD50_Rat_Note: TD50 is harmonic mean of more than one positive test, greater than ten-fold variation among TD50 values for positive res, TargetSites_Rat_Female: mammary gland, subcutaneous tissue) is 14.6 mg/kg/day.

As to `CCN(C#N)N=O`, the Potency (TD50_Rat_Note: TD50 is harmonic mean of more than one positive test, TargetSites_Rat_Female: nasal cavity) is 3.68 mg/kg/day. With `Nc1cc([N+](=O)[O-])ccc1O`, the Potency under setting [1] is 839 mg/kg/day.

In the case of `CCC(C(=O)NC(N)=O)c1ccccc1` (centres undefined), the outcome was “inactive; no positive results”. Turning to `Cc1cccc(C)c1`, the Potency (TD50_Rat_Note: TD50 is harmonic mean of more than one positive test, TargetSites_Rat_Female: oral cavity, Maltoni head cancers) is 3110 mg/kg/day. Besides, the outcome under setting [1] was “inactive; no positive results”. For `ClCC(Cl)Cl`, the outcome under setting [1] is “inactive; no positive results”. `CCNC(=O)N(CCN(C)C)N=O`: the Potency (TargetSites_Rat_Female: mammary gland, uterus) is 0.704 mg/kg/day. Turning to `NC(=O)/C(=C\c1ccc([N+](=O)[O-])o1)c1ccco1`, the Potency (TD50_Rat_Note: TD50 is harmonic mean of more than one positive test, greater than ten-fold variation among TD50 values for positive res, TargetSites_Rat_Female: mammary gland) is 29.4 mg/kg/day. Take `Oc1ccc(O)cc1`: the Potency under setting [3] was 82.8 mg/kg/day. Regarding `Clc1ccccc1Cl`, the outcome under setting [1] was “inactive; no positive results”. Same read-out and setting: the value for `O=NN1CSCSC1` was “inactive”.

Take `Nc1cccc2c(N)cccc12`: the Potency (TargetSites_Rat_Female: clitoral gland, uterus) is 69.6 mg/kg/day. With `CCN=[N+](C)[O-]`, the Potency was 11.5 mg/kg/day. Regarding `COP(=O)(OC)OC=C(Cl)Cl`, the Potency under setting [1] is 4.16 mg/kg/day. Take `ClC(Cl)=C(Cl)c1c(Cl)c(Cl)c(Cl)c(Cl)c1Cl`: the outcome under setting [1] was “inactive; no positive results”. Take `O=C(O)c1nn(Cc2ccc(Cl)cc2Cl)c2ccccc12`: under setting [1], the outcome is “inactive; no positive results”. Take `COP(=O)(OC)C(O)C(Cl)(Cl)Cl` (centres undefined): the outcome under setting [4] was inactive. On to `NC(N)=Nc1nc(CSCCNc2nsnc2N)cs1`, for which, under “TD50_Rat_Note: TD50 is harmonic mean of more than one positive test, TargetSites_Rat_Female: stomach”, the Potency was 4990 mg/kg/day. With `OC[C@@H](O)[C@@H](O)[C@H](O)[C@H](O)CO`, the outcome under setting [1] is “inactive; no positive results”.

The values above are taken from PubChem BioAssay AID1208 (EPA DSSTox, 2008).
